Data reported in patent US6100074A, “Mutant mono-oxygenase cytochrome P-450 cam” (BG plc, priority 1994, dated 2000).
Where two headings read alike, the source gives them in different places.

Experiments:
[1] = target: T1, P-450cam mutant Y96A (Pseudomonas putida, UniProt P00183, Y97A); assay: biochemical; format: binding
[2] = target: T2, P450cam mutant Y96A, C334A (Pseudomonas putida, UniProt P00183, C335A/Y97A); format: biochemical, P. putida
T2 construct: reconstituted with putidaredoxin and putidaredoxin reductase
T2 sequence (P00259 whole entry): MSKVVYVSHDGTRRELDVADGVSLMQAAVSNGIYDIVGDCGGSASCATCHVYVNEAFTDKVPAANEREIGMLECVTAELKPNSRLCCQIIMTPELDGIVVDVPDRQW
T2 sequence (P00183 2-415 Y97A/C335A): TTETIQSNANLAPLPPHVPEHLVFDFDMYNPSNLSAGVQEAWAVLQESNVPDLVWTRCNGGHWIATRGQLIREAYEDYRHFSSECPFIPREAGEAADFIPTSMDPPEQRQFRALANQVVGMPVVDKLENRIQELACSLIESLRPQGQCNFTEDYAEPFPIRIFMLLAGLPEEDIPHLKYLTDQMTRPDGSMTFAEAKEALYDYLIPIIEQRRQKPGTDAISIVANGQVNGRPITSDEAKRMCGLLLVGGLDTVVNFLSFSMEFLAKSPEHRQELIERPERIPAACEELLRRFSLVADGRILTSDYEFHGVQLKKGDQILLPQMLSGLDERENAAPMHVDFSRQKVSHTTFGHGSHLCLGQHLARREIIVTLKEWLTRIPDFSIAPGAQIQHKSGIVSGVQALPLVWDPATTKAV
T2 sequence (P16640 whole entry, further chain): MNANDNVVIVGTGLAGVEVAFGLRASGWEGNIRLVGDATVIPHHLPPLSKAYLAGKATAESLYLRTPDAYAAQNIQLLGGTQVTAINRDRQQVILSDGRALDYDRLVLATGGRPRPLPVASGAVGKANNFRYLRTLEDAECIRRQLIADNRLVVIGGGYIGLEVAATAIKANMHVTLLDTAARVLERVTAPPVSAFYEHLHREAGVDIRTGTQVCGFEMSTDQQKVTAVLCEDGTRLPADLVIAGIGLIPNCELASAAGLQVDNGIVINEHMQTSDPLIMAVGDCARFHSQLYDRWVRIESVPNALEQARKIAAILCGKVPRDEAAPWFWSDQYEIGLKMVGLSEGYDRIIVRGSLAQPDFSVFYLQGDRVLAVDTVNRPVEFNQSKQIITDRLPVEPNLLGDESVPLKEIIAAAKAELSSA
Method: (§1) […] The enzymatic reaction was initiated by firstly adding NADH to a total concentration of 2 mM. Further four aliquots of NADH (to increase the NADH concentration by 1 mM each time) were added in intervals of 5 min and the reaction quenched after 30 min by adding 0.5 ml chloroform. The chloroform layer was analysed by gas chromatography.
(§2) Reaction products for some substrate compounds have been purified by high performance liquid chromatography and identified by mass spectroscopy, nuclear magnetic resonance, and/or co-elution. […] Table 4(a) to 4(h) details the product distributions for mutant and substrate combinations where this has been elucidated to date.
(§3) Product structure and distributions following oxidation of substrates
(§4) active site mutants. All mutants shown below also contain the C334A

[3] = target: T3, P450cam mutant F87A-F96G-F193A (C334A) (Pseudomonas putida, UniProt P00183, C335A/F194A/F88A/Y97G); format: biochemical, P. putida
T3 construct: reconstituted with putidaredoxin and putidaredoxin reductase
T3 sequence (P00259 whole entry): as the sequence (P00259 whole entry) above
T3 sequence (P16640 whole entry, further chain): as the sequence (P16640 whole entry, further chain) above
T3 sequence (P00183 2-415 F88A/Y97G/F194A/C335A): as the sequence (P00183 2-415 Y97A/C335A) above, with F87A, A96G, F193A counted along it
Method: as §1, §2, §3, §4

[4] = target: T4, wild type P450cam (Pseudomonas putida, UniProt P00183); assay: Product distribution following oxidation of substrates, WT; format: biochemical, P. putida; design: reconstituted with putidaredoxin and putidaredoxin reductase
Method: as §1, §2, §3
Target sequence in this assay (P00259 whole entry): as the sequence (P00259 whole entry) above
Target sequence in this assay (P00183 whole entry): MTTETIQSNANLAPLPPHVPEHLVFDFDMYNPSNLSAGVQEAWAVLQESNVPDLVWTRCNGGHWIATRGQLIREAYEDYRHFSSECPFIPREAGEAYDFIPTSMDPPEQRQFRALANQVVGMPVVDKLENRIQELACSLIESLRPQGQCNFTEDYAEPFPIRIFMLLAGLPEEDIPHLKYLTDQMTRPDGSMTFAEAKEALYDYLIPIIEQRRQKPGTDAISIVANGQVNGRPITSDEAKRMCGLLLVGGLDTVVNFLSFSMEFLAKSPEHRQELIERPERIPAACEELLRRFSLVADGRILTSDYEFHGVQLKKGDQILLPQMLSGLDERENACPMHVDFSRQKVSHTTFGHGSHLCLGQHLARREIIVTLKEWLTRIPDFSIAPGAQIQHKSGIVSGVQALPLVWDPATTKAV
Target sequence in this assay (P16640 whole entry, further chain): as the sequence (P16640 whole entry, further chain) above

[5] = target: T4, wild type P450cam; assay: biochemical; format: binding; conditions: read-out: Vs DTT (percentage displacement of DTT bound to P-450)
Target sequence in this assay (P00183 whole entry): as the sequence (P00183 whole entry) above

[6] = target: T1, P-450cam mutant Y96A; format: biochemical; design: key: Those substrates where oxidation has been demonstrated by means of NADH turnover are marked with a + sign
[7] = target: T5, P450cam mutant Y96F, C334A (Pseudomonas putida, UniProt P00183, C335A/Y97F); format: biochemical, P. putida
T5 construct: reconstituted with putidaredoxin and putidaredoxin reductase
T5 sequence (P16640 whole entry): as the sequence (P16640 whole entry, further chain) above
T5 sequence (P00183 2-415 Y97F/C335A): as the sequence (P00183 2-415 Y97A/C335A) above, with A96F counted along it
T5 sequence (P00259 whole entry, further chain): as the sequence (P00259 whole entry) above
Method: as §1, §2, §3, §4

[8] = target: T6, P450cam mutant Y96V, C334A (Pseudomonas putida, UniProt P00183, C335A/Y97V); assay: Product distribution following oxidation of substrates, Y96V (also C334A); format: biochemical, P. putida
T6 construct: reconstituted with putidaredoxin and putidaredoxin reductase
T6 sequence (P16640 whole entry): as the sequence (P16640 whole entry, further chain) above
T6 sequence (P00259 whole entry, further chain): as the sequence (P00259 whole entry) above
T6 sequence (P00183 2-415 Y97V/C335A): as the sequence (P00183 2-415 Y97A/C335A) above, with A96V counted along it
Method: as §1, §2, §3, §4

[9] = target: T7, P450cam mutant Y96L, C334A (Pseudomonas putida, UniProt P00183, C335A/Y97L); assay: Product distribution following oxidation of substrates, Y96L (also C334A); format: biochemical, P. putida
T7 construct: reconstituted with putidaredoxin and putidaredoxin reductase
T7 sequence (P00259 whole entry): as the sequence (P00259 whole entry) above
T7 sequence (P16640 whole entry, further chain): as the sequence (P16640 whole entry, further chain) above
T7 sequence (P00183 2-415 Y97L/C335A): as the sequence (P00183 2-415 Y97A/C335A) above, with A96L counted along it
Method: as §1, §2, §3, §4

[10] = target: T2, P450cam mutant Y96A, C334A; format: biochemical, P. putida; conditions: also contains C334A
Method: A solution containing 10 μM putidaredoxin, 2 μM putidaredoxin reductase, 1 μM cytochrome P-450cam mono-oyxgenase (wild-type or mutant) and 1 mM diphenylmethane in 100 mM KC1, 20 mM KH2 PO4 pH7.4 was preincubated at 25° C. in a shaker for 5 min. The enzymatic reaction was initiated by firstly adding NADH to a total concentration of 2 mM. Further four aliquots of NADH (to increase the NADH concentration by 1 mM each time) were added in intervals of 5 min and the reaction quenched after 30 min by adding 0.5 ml chloroform. The chloroform layer was analysed by gas chromatography.
as §2
All mutants listed below also contain the C334A mutation.
Turnover rate measured as NADH consumption rate
(nmole NADH/nmole P450cam/s).

[11] = target: T4, wild type P450cam; format: binding; conditions: Wild type; 200 μM test compound, phosphate buffer pH 7.4
Target sequence in this assay (P00183 whole entry): as the sequence (P00183 whole entry) above

[12] = target: T4, wild type P450cam; assay: Turnover rate measured as NADH consumption rate, wild type; format: biochemical, P. putida; design: reconstituted with putidaredoxin and putidaredoxin reductase
Target sequence in this assay (P00259 whole entry): as the sequence (P00259 whole entry) above
Target sequence in this assay (P00183 whole entry): as the sequence (P00183 whole entry) above
Target sequence in this assay (P16640 whole entry, further chain): as the sequence (P16640 whole entry, further chain) above

[13] = Mutant Y96A, 200 μM DTT, 200 μM test compound, phosphate buffer, read-out: Vs DTT (percentage displacement of DTT bound to P-450)
[14] = Wild type, 200 μM DTT, 200 μM test compound, phosphate buffer

T1 sequence (P00183 2-415 Y97A): as the sequence (P00183 2-415 Y97A/C335A) above, with A334C counted along it

## c1ccc2c(c1)-c1cccc3cccc-2c13 [Fluoranthene]
[1]; read-out: Vs DTT (percentage displacement of DTT bound to P-450)
  inhibition at 200 µM: 10%
[2]
  Total products: 2.7 area/10^6
[2]; fluoranthene
  Products (%): A: 84%
  Products (%): B: 16%
[3]
  Total products: 0.2 area/10^6
[3]; fluoranthene
  Products (%): A: 0%
  Products (%): B: 100%
[4]
  Total products: 0 area/10^6
[4]; fluoranthene
  Products (%): A: 0%
  Products (%): B: 0%
[5]
  inhibition at 200 µM: 5%

## C1CCCCC1 [Cyclohexane]
[1]; [13]
  percent displacement of bound DTT at 200 µM: 60%
[6]
  NADH turnover?: +

## c1cc2ccc3cccc4ccc(c1)c2c34 [Pyrene]
[7]
  Total products: 1.5 area/10^6
[2]
  Total products: 1.2 area/10^6
[3]
  Total products: 0.02 area/10^6
[4]
  Total products: 0 area/10^6
[8]
  Total products: 1.6 area/10^6
[9]
  Total products: 1.5 area/10^6

## CCCCCCCC [n-Octane]
[1]; [13]
  percent displacement of bound DTT at 200 µM: 45%
[10]
  Turnover rate measured as NADH consumption rate: 5.8 nmole NADH/nmole P450cam/s
[6]
  NADH turnover?: +
[5]; [14]
  inhibition at 200 µM: 5%

## c1ccc(C2CCCCC2)cc1 [Cyclohexylbenzene]
[7]
  Total products: 1.1 area/10^5
[7]; cyclohexylbenzene
  Products (%): Cis-4-ol: 13%
  Products (%): Trans-4-ol: 6%
[2]
  Total products: 7.4 area/10^5
[2]; cyclohexylbenzene
  Products (%): 3-ol: 20%
  Products (%): Cis-4-ol: 45%
  Products (%): Trans-4-ol: 15%
[4]
  Total products: 0.8 area/10^5
[4]; cyclohexylbenzene
  Products (%): Cis-4-ol: 12%
  Products (%): Trans-4-ol: 25%
[8]
  Total products: 12.5 area/10^5
[8]; cyclohexylbenzene
  Products (%): Cis-4-ol: 23%
  Products (%): Trans-4-ol: 10%
[11]
  ΔSpin high/low (percentage of P-450 converted from low- to high-spin): 20%
[5]; [14]
  inhibition at 200 µM: 20%
[9]
  Total products: 10.4 area/10^5
[9]; cyclohexylbenzene
  Products (%): Cis-4-ol: 16%
  Products (%): Trans-4-ol: 23%

## CC1CCCCC1 [Methylcyclohexane]
[1]; Mutant Y96A, 200 μM DTT, 200 μM test compound, phosphate buffer, 200 µM
  Vs DTT (percentage displacement of DTT bound to P-450): 70%
[1]; [13]
  percent displacement of bound DTT at 200 µM: 60%
[11]
  ΔSpin high/low (percentage of P-450 converted from low- to high-spin): 50%
[5]; [14]
  inhibition at 200 µM: 50%

## CCC(C)CC [3-methyl pentane]
[12]
  Turnover rate measured as NADH consumption rate: 1.3 nmole NADH/nmole P450cam/s
[10]
  Turnover rate measured as NADH consumption rate: 14.2 nmole NADH/nmole P450cam/s

## c1ccc2c(c1)ccc1ccccc12 [Phenanthrene]
[1]; [13]
  percent displacement of bound DTT at 200 µM: 20%
[7]
  Total products: 4.5 area/10^6
[7]; phenanthrene
  Products (%): A: 41%
  Products (%): B: 31%
  Products (%): C: 5%
  Products (%): D: 23%
[2]
  Total products: 7.0 area/10^6
[2]; phenanthrene
  Products (%): A: 49%
  Products (%): B: 23%
  Products (%): C: 13%
  Products (%): D: 15%
[3]
  Total products: 0.065 area/10^6
[3]; phenanthrene
  Products (%): A: 27%
  Products (%): B: 41%
  Products (%): C: 3%
  Products (%): D: 29%
[4]
  Total products: 0.075 area/10^6
[4]; phenanthrene
  Products (%): A: 38%
  Products (%): B: 15%
  Products (%): C: 12%
  Products (%): D: 35%
[8]
  Total products: 1.6 area/10^6
[8]; phenanthrene
  Products (%): A: 41%
  Products (%): B: 38%
  Products (%): C: 11%
  Products (%): D: 10%
[6]
  NADH turnover?: +
[9]
  Total products: 2.8 area/10^6
[9]; phenanthrene
  Products (%): A: 35.5%
  Products (%): B: 41%
  Products (%): C: 9%
  Products (%): D: 14.5%

## C1=Cc2ccccc2CC1 [1,2-Dihydronaphthalene]
[1]; [13]
  percent displacement of bound DTT at 200 µM: 90%
[11]
  ΔSpin high/low (percentage of P-450 converted from low- to high-spin): 5%
[5]; [14]
  inhibition at 200 µM: 20%

## c1ccc2c(c1)CCCC2 [1,2,3,4-Tetrahydro naphthalene]
[1]; [13]
  percent displacement of bound DTT at 200 µM: 40%
[11]
  ΔSpin high/low (percentage of P-450 converted from low- to high-spin): 5%
[5]; [14]
  inhibition at 200 µM: 10%

## C=C(C)[C@H]1CC=C(C)C(=O)C1 [(S)-(+)-Carvone]
[1]; [13]
  percent displacement of bound DTT at 200 µM: 80%
[11]
  ΔSpin high/low (percentage of P-450 converted from low- to high-spin): 10%
[5]; [14]
  inhibition at 200 µM: 60%

## c1ccc2ccccc2c1 [Naphthalene]
[1]; [13]
  percent displacement of bound DTT at 200 µM: 20%
[7]
  Total products: 2.4 area/10^5
[7]; naphthalene
  Products (%): 1-ol: 100%
  Products (%): 2-ol: 0%
[2]
  Total products: 1.1 area/10^5
[2]; naphthalene
  Products (%): 1-ol: 100%
  Products (%): 2-ol: 0%
[3]
  Total products: 0.1 area/10^5
[3]; naphthalene
  Products (%): 1-ol: 100%
  Products (%): 2-ol: 0%
[4]
  Total products: 0.016 area/10^5
[4]; naphthalene
  Products (%): 1-ol: 100%
  Products (%): 2-ol: 0%
[8]
  Total products: 1.4 area/10^5
[8]; naphthalene
  Products (%): 1-ol: 100%
  Products (%): 2-ol: 0%
[9]
  Total products: 0.7 area/10^5
[9]; naphthalene
  Products (%): 1-ol: 100%
  Products (%): 2-ol: 0%

## C1=CC2C3C=CC(C3)C2C1 (centres unmarked) [Dicyclopentadiene]
[1]; [13]
  percent displacement of bound DTT at 200 µM: 90%
[11]
  ΔSpin high/low (percentage of P-450 converted from low- to high-spin): 50%
[5]; [14]
  inhibition at 200 µM: 80%
